Columns and labels:
Assay type in all cases: cell-based
YddA [1] = target: T1, YddA (Escherichia coli, UniProt P31826); assay: fluorescence efflux and accumulation assays in whole cells, yddA knockout vs parent strains; also inhibits norfloxacin efflux
YddA [2] = target: T1, YddA; assay: fluorescence efflux and accumulation assays in whole cells, yddA knockout vs parent strains
YddA [3] = target: T1, YddA; assay: inhibition of norfloxacin efflux in whole cells (fluorescence)
Excerpt: inhibition of norfloxacin efflux in whole cells (fluorescence) on YddA | Efflux of norfloxacin by YddA transporter was inhibited by reserpine

T1 sequence (P31826 whole entry): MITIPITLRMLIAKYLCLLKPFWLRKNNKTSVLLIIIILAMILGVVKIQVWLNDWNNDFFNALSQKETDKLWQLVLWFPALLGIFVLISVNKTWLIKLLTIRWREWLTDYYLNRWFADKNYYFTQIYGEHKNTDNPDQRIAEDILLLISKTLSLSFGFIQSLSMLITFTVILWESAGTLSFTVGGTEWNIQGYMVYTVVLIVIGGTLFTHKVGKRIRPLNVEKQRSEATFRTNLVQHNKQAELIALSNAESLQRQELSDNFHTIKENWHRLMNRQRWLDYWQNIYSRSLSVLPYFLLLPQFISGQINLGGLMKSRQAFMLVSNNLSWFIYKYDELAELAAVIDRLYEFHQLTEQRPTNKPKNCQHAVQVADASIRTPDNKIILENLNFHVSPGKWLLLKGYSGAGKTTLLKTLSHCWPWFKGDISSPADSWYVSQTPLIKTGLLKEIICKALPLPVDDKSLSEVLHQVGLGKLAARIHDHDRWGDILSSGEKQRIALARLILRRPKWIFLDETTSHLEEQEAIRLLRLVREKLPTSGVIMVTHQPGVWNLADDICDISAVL

SMILES: CC[n+]1c(-c2ccccc2)c2cc(N)ccc2c2ccc(N)cc21 [EB, ethidium bromide]
- fluorescence efflux and accumulation assays in whole cells, yddA knockout vs par (YddA [1]): indicating that yddA knockout reduced EB efflux, which increased the accumulation of EB in cells

SMILES: CCn1cc(C(=O)O)c(=O)c2cc(F)c(N3CCNCC3)cc21 [norfloxacin]
- fluorescence efflux and accumulation assays in whole cells, yddA knockout vs par (YddA [2]): The results showed that knockout of yddA led to less norfloxacin efflux out of cells.

SMILES: COC(=O)[C@H]1[C@H]2C[C@@H]3c4[nH]c5cc(OC)ccc5c4CCN3C[C@H]2C[C@@H](OC(=O)c2cc(OC)c(OC)c(OC)c2)[C@@H]1OC [reserpine]
- IC50 (YddA [3]): 120 µM

Reference: PMC9728188, “Cloning and Functional Characterization of Putative Escherichia coli ABC Multidrug Efflux Transporter YddA” (Journal of Microbiology and Biotechnology, 2020)
